# Values of other authors, collected in US5041644A, “Peptide derivatives of β-chloro-L(Z)-dehydro-glutamic acid” (Merck & Co., Inc., priority 1987, dated 1991).
# Key:
# [1] = test system: D-Alanyl-D-Alanine ligase (synthetase); conditions: at both the donor and acceptor sites; most potent ligase inhibitor described heretofore
# Micrococcus luteus = conditions: very narrow antibacterial spectrum; activity practically limited only to Micrococcus luteus
Structure (SMILES),inhibition of the ligase [1],antibacterial activity (Micrococcus luteus)
N[C@@H]1CONC1=O [D-Cycloserine],reversible inhibitor,
N[C@@H](C(=O)O)/C(Cl)=C/C(=O)O [β-chloro-L-(Z)-dehydroglutamic acid],,shows an antibacterial activity
